Reference: patent publication US20050239656A1, “Pyridine compounds or salts thereof and herbicides containing the same” (priority 2002, published 2005)

Tests used:
barnyardgrass [1] = experiment: Test Example 1: foliage treatment, upland pot test; assay type: in vivo, Echinochloa crus-galli L.; conditions: active ingredient 1000 g/ha, observed 18th to 23rd day, 0 = non-treated, 100 = complete kill
In short: (§1)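 Foliage tx, upland soil pots; stages: wheat 1.3-2.4 L, rice 1.2-2.6 L, soybean 0.1-0.4 L, barnyardgrass 1.3-2.8 L. WP/EC diluted, 500 L/ha water + 0.1% (v/v) agricultural spreader, small sprayer. Visual rating d18–23, 0–100% control.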

redroot pigweed [2] = experiment: Test Example 1: foliage treatment, upland pot test; assay type: in vivo, Amaranthus retroflexus L.; conditions: active ingredient 1000 g/ha, observed 18th to 23rd day, 0 = non-treated, 100 = complete kill
barnyardgrass [3] = experiment: Test Example 3: paddy pot test, application under submerged conditions; assay type: in vivo, Echinochloa crus-galli L.; conditions: submerged application at 0.5 leaf stage, visually observed 14 days after application, 0 = non-treated, 100 = complete kill
In short: (§2)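 Visual rating of growth control (0% equals untreated, 100% complete kill) made 14 days after treatment. Compound, formulated as wettable powder or emulsifiable concentrate and diluted in water, was pipetted under submerged conditions at predetermined active-ingredient doses once weeds reached 0.5-leaf (barnyardgrass, bulrush) or primary-leaf (wapato, from tubers) stage. Pots of greenhouse paddy soil held 3–4 cm flooding.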

rice [4] = experiment: Test Example 1: foliage treatment, upland pot test; assay type: in vivo, Oryza sativa L.; conditions: crop, active ingredient 1000 g/ha, observed 18th to 23rd day, 0 = non-treated, 100 = complete kill
In short: as §1

rice [5] = experiment: Test Example 2: soil surface treatment, upland pot test; assay type: in vivo, Oryza sativa L.; conditions: active ingredient 1000 g/ha, observed 20th to 28th day
In short: (§3)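 Pre-emergence soil-surface spray, 1 d after sowing; 1/170,000 ha pots, upland soil; WP or EC formulation, set a.i. rate, 1,500 L/ha water; visual growth-control score 0–100% at days 20–28 post-treatment.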

soybean [6] = experiment: as above; assay type: in vivo, Glycine max Merr.; conditions: active ingredient 1000 g/ha, observed 20th to 28th day
In short: as §3

crabgrass [7] = experiment: as above; assay type: in vivo, Digitaria sanguinalis L.; conditions: active ingredient 1000 g/ha, observed 20th to 28th day
In short: as §3

japanese ribbon wapato = experiment: Test Example 3: paddy pot test, application under submerged conditions; assay type: in vivo, Sagittaria pygniaea; conditions: submerged application at primary leaf stage, visually observed 14 days after application, 0 = non-treated, 100 = complete kill
In short: as §2

prickly sida [8] = experiment: Test Example 2: soil surface treatment, upland pot test; assay type: in vivo, Sida spinosa L.; conditions: active ingredient 1000 g/ha, observed 20th to 28th day
In short: as §3

soybean [9] = experiment: Test Example 1: foliage treatment, upland pot test; assay type: in vivo, Glycine max Merr.; conditions: crop, active ingredient 1000 g/ha, observed 18th to 23rd day, 0 = non-treated, 100 = complete kill
In short: as §1

tall morningglory = experiment: Test Example 1: foliage treatment, upland pot test; assay type: in vivo, Ipomoea purpurea L.; conditions: active ingredient 1000 g/ha, observed 18th to 23rd day, 0 = non-treated, 100 = complete kill
Description: Upland field soil was put into a 1/170,000 ha pot, and seed of various plants were sown. Then, when the plants reached predetermined leaf stages ((1) barnyardgrass: 1.3 to 2.8 leaf stages, (2) crabgrass: 1.0 to 2.8 leaf stages, (3) green foxtail: 1.3 to 2.6 leaf stages, (4) redroot pigweed: 0.1 to 1.2 leaf stages, (5) prickly sida: 0.1 to 1.2 leaf stages, (6) velvetleaf: 0.1 to 1.2 leaf stages, (7) tall morningglory: 0.1 to 1.5 leaf stages, (8) rice: 1.2 to 2.6 leaf stages, (9) wheat: 1.3 to 2.4 leaf stages, (10) corn, 2.1 to 3.2 leaf stages, (11) soybean: 0.1 to 0.4 leaf stage), a wettable powder or emulsifiable concentrate having the compound of the present invention formulated in accordance with a usual formulation method, was weighed so that the active ingredient would be a predetermined amount, and diluted with water in an amount of 500 L/ha. To the diluted solution, 0.1% (v/v) of agricultural spreader was added. The herbicide thus adjusted was applied by a small size sprayer for foliage treatment. On the 18th to 23rd days after the application of the herbicide, the growth of the respective plants was visually observed, and the herbicidal effects were evaluated by the growth controlling degrees (%) ranging from 0 (equivalent to the non-treated plot) to 100 (complete kill), whereby the results shown in Table 3, were obtained.

wheat [10] = experiment: Test Example 1: foliage treatment, upland pot test; assay type: in vivo, Triticum spp.; conditions: crop, active ingredient 1000 g/ha, observed 18th to 23rd day, 0 = non-treated, 100 = complete kill
In short: as §1

prickly sida [11] = experiment: Test Example 1: foliage treatment, upland pot test; assay type: in vivo, Sida spinosa L.; conditions: active ingredient 1000 g/ha, observed 18th to 23rd day, 0 = non-treated, 100 = complete kill
corn [12] = experiment: Test Example 1: foliage treatment, upland pot test; assay type: in vivo, Zea mays L.; conditions: crop, active ingredient 1000 g/ha, observed 18th to 23rd day, 0 = non-treated, 100 = complete kill
In short: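 In this upland pot foliage test, corn plants at 2.1 to 3.2 leaf stages were sprayed by a small size sprayer. The spray was a conventionally formulated wettable powder or emulsifiable concentrate weighed to a set active ingredient amount, diluted in water at 500 L/ha, plus 0.1% (v/v) agricultural spreader. Visual assessment on days 18 to 23 gave growth controlling degree (%), where 0 equals untreated and 100 means complete kill.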

crabgrass [13] = experiment: Test Example 1: foliage treatment, upland pot test; assay type: in vivo, Digitaria sanguinalis L.; conditions: active ingredient 1000 g/ha, observed 18th to 23rd day, 0 = non-treated, 100 = complete kill
japanese bulrush = experiment: Test Example 3: paddy pot test, application under submerged conditions; assay type: in vivo, Scirpus juncoides; conditions: submerged application at 0.5 leaf stage, visually observed 14 days after application, 0 = non-treated, 100 = complete kill
In short: as §2

green foxtail [14] = experiment: Test Example 2: soil surface treatment, upland pot test; assay type: in vivo, Setaria viridis L.; conditions: active ingredient 1000 g/ha, observed 20th to 28th day
In short: as §3

velvetleaf [15] = experiment: as above; assay type: in vivo, Abutilon theophrasti MEDIC.; conditions: active ingredient 1000 g/ha, observed 20th to 28th day
In short: as §3

green foxtail [16] = experiment: Test Example 1: foliage treatment, upland pot test; assay type: in vivo, Setaria viridis L.; conditions: active ingredient 1000 g/ha, observed 18th to 23rd day, 0 = non-treated, 100 = complete kill
rice (var. Nihonbare) = experiment: Test Example 3: paddy pot test, transplanted rice; assay type: in vivo, Oryza sativa L.; conditions: applied 4th day after transplantation, visually observed 21st day after application, 0 = non-treated, 100 = complete kill
In short: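 Visual crop-injury rating (0 = as untreated, 100 = complete kill, %) taken 21 days post-application. Treatment: formulated compound, water-diluted, pipetted into 3–4 cm flood water at a preset active-ingredient dose, 4 days after transplanting 2-leaf Nihonbare rice 3 cm deep in puddled paddy soil.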

wheat [17] = experiment: Test Example 2: soil surface treatment, upland pot test; assay type: in vivo, Triticum spp.; conditions: active ingredient 1000 g/ha, observed 20th to 28th day
In short: as §3

barnyardgrass [18] = experiment: as above; assay type: in vivo, Echinochloa crus-galli L.; conditions: active ingredient 1000 g/ha, observed 20th to 28th day, 0 = non-treated, 100 = complete kill
In short: as §3

corn [19] = experiment: as above; assay type: in vivo, Zea mays L.; conditions: active ingredient 1000 g/ha, observed 20th to 28th day
In short: as §3

velvetleaf [20] = experiment: Test Example 1: foliage treatment, upland pot test; assay type: in vivo, Abutilon theophrasti MEDIC.; conditions: active ingredient 1000 g/ha, observed 18th to 23rd day, 0 = non-treated, 100 = complete kill
redroot pigweed [21] = experiment: Test Example 2: soil surface treatment, upland pot test; assay type: in vivo, Amaranthus retroflexus L.; conditions: active ingredient 1000 g/ha, observed 20th to 28th day
In short: as §3

SMILES | Growth controlling degree (%) Barnyardgrass (barnyardgrass [1]) [%] | Growth controlling degree (%) Redroot pigweed (redroot pigweed [2]) [%] | Growth controlling degree (%) Rice (rice [4]) [%] | Growth controlling degree (%) Rice (rice [5]) [%] | Growth controlling degree (%) Soyabean (soybean [6]) [%] | Growth controlling degree (%) Crabgrass (crabgrass [7]) [%] | Growth controlling degree (%) Prickly sida (prickly sida [8]) [%] | Growth controlling degree (%) Soybean (soybean [9]) [%] | Growth controlling degree (%) Tall morningglory (tall morningglory) [%] | Growth controlling degree (%) wheat (wheat [10]) [%] | Growth controlling degree (%) Prickly sida (prickly sida [11]) [%] | Growth controlling degree (%) Corn (corn [12]) [%] | Growth controlling degree (%) Crabgrass (crabgrass [13]) [%] | Growth controlling degree (%) Green foxtail (green foxtail [14]) [%] | Growth controlling degree (%) Velvetleaf (velvetleaf [15]) [%] | Growth controlling degree (%) Green foxtail (green foxtail [16]) [%] | Growth controlling degree (%) wheat (wheat [17]) [%] | Growth controlling degree (%) Barnyardgrass (barnyardgrass [18]) [%] | Growth controlling degree (%) Corn (corn [19]) [%] | Growth controlling degree (%) Velvetleaf (velvetleaf [20]) [%] | other results
CC(C)C(c1cnccc1C(F)(F)F)N(C)C(=O)Cc1ccc(I)cc1 (centres unmarked) [I-2] | 90 | 70 | 20 | 0 | 0 | 90 | 70 | 90 | 90 | 20 | 90 | 20 | 90 | 80 | 0 | 70 | 0 | 80 | 0 | 90 | Growth controlling degree (%) Barnyardgrass (barnyardgrass [3]; active ingredient 250 g/ha): 100%; Growth controlling degree (%) Japanese ribbon wapato (japanese ribbon wapato; active ingredient 250 g/ha): 50%; Growth controlling degree (%) Japanese bulrush (japanese bulrush; active ingredient 250 g/ha): 90%; Growth controlling degree (%) Rice (rice (var. Nihonbare); active ingredient 250 g/ha): 20%; Growth controlling degree (%) Redroot pigweed (redroot pigweed [21]): 70%
CC(C)C(c1cnccc1C(F)(F)F)N(C)C(=O)Cc1ccc(Br)cc1 (centres unmarked) [I-10] | 90 | 90 | 30 | 30 | 30 | 100 | 60 | 90 | 95 | 30 | 90 | 60 | 95 | 100 | 60 | 90 | 20 | 100 | 10 | 95 | Growth controlling degree (%) Barnyardgrass (barnyardgrass [3]; active ingredient 500 g/ha): 100%; Growth controlling degree (%) Japanese ribbon wapato (japanese ribbon wapato; active ingredient 500 g/ha): 10%; Growth controlling degree (%) Japanese bulrush (japanese bulrush; active ingredient 500 g/ha): 98%; Growth controlling degree (%) Rice (rice (var. Nihonbare); active ingredient 500 g/ha): 10%; Growth controlling degree (%) Redroot pigweed (redroot pigweed [21]): 60%
